Data set [1] concerns the target T1, human RNR (histidine tagged human M1 and human M2 proteins) (Homo sapiens, UniProt P23921).
T1 construct: made in house; host or cells: Escherichia coli
T1 sequence (P23921 1-792): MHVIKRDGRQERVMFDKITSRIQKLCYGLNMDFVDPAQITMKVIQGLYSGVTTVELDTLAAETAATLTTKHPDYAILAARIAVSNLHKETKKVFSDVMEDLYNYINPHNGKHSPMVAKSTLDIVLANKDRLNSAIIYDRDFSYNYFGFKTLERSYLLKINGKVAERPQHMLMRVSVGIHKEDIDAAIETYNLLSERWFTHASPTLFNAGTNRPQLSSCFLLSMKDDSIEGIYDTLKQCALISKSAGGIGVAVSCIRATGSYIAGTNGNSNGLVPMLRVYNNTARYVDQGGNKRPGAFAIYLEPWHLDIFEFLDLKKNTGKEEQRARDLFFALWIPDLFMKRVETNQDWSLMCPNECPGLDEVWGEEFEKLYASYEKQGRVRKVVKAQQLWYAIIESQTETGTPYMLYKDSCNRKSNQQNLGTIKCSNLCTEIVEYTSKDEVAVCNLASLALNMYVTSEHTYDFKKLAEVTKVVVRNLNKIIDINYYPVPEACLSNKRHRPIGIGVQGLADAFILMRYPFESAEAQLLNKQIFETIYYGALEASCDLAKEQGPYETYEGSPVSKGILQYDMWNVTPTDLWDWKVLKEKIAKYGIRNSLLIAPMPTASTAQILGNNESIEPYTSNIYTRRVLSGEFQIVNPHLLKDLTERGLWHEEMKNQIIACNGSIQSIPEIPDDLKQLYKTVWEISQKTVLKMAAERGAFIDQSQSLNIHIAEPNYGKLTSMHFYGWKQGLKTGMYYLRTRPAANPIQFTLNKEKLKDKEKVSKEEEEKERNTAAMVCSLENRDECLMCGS
Put plainly: Human RNR inhibition effect (dCDP formation from CDP). The class given is biochemical. Particulars: 10 μM CDP, 37° C. for 30 minutes, read-out: RNR inhibitory activity IC50. Summed up:
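His-tagged human M1 (isoform 1) and N-terminal 59-aa-truncated M2 (isoform 2), E. coli-expressed, Ni-purified, preincubated 20 min with compound (1% DMSO). Reaction with 10 μM CDP, 2 mM ATP, 0.24 mM NADPH, 6 mM DTT, 4 mM Mg acetate, 100 mM KCl, 50 mM HEPES pH 7.2, 30 min at 37° C. dCDP formed quantified by reverse-phase HPLC after heat stop.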

The next data set relates to NCI-H460 cells. Put plainly: Cell proliferation inhibitory effect on human cancer cell lines: NCI-H460. The class given is cell-based. As to conditions: 72 h, NCI-H460, Lung Cancer, ATCC recommended RPMI-1640 + 10% FBS, 1000 cell/well. The procedure: (§1) Human derived breast cancer cell line HCC 1806 cells (American Type Culture Collection, ATCC) were daily passaged at a cell density not exceeding 80% in ATCC recommended Roswell Park Memorial Institute medium (RPMI-1640) containing 10% fetal bovine serum (FBS). In order to start the test of cell proliferation inhibitory activity, HCC 1806 cells were suspended in the above medium, after seeing at 180 μL in each well of a 96-well flat bottom plate so that the number of cells per well was 2,000, the cells were cultured at 37° C. for 1 day in an incubator containing 5% carbon dioxide gas.
(§2) On the next day, the Example compound was dissolved in DMSO, and 20 μL of a drug additive solution diluted serially with distilled water to 10 times of the final concentration was added to each well of the culture plate of the cells, and the cells were cultured at 37° C. for 72 hours in an incubator containing 5% carbon dioxide gas. […] 100 μL of an extract solution (0.1 N NaH2PO4: 100% ethanol=1:1) was added to each well and mixed, and the mixture was measured at a wavelength of 540 nm using a plate reader (MTP-450 manufactured by Corona Electric Co., Ltd.). […]
(§3) According to the method of Test Example 2, the cell proliferation inhibitory effect on various cancer cell lines as described in Table 24 was evaluated. […]

Another data set deals with A2780 cells. The data set can be described thus: Cell proliferation inhibitory effect on human cancer cell lines: A2780. The class given is cell-based. As to conditions: 72 h, A2780, Ovarian Cancer, RPMI-1640 + 10% FBS, 2000 cell/well. Here is the method:
as §1, §2, §3

The subject of another data set is MV-4-11. Put plainly: Antitumor effect in human-derived blood cancer cell line (MV-4-11) subcutaneous transplantation model (in vivo). On the set-up: species or system nude mouse (BALB/cA Jcl-nu/nu). As to conditions: oral, 100 mg/kg/day once per day for 14 days; RTV vs control group, Student-t test, p<0.05. Here is the method:
A human-derived blood cancer cell line MV-4-11 was transplanted subcutaneously into a nude mouse (BALB/cA Jcl-nu/nu, CLEA Japan, Inc.), and at the time when the tumor volume of the nude mouse on which the engrafted tumor reached 100 to 300 mm^3, four mice were assigned to each group by random stratification so that the average of the tumor volumes of each group was uniform (day 0), and the Example compound was orally administered daily at 100 mg/kg/day once per day for 14 days. Example Compound dosing solutions were prepared using 0.5% HPMC.
An electric balance for animals was used in body weight measurement. Rate of change in body weight on day n (BWCn) from body weight on day n (BWn) was calculated according to the following equation.
Rate of change in body weight BWCn (%)=(BWn−BW0)/BW0×100
Tumor volume (TV) was calculated according to the following equation by sandwiching and measuring the major axis and the minor axis with a digital caliper.
Tumor volume (mm^3)=Major axis (mm)×Minor axis (mm)×Minor axis (mm)/2
In order to compare the chronological transition of proliferation of tumor for the administration of each compound, relative tumor volume (RTV) setting the tumor volume at the time of grouping as 1 as the tumor proliferation rate was calculated according to the following formula, and the transition of the average value of RTV of each individual are shown in FIGS. 1 to 4.
RTV=(tumor volume at the day of tumor volume measurement)/(tumor volume at the time of the grouping)

The next data set has as its system ACHN cells. The data set can be described thus: Cell proliferation inhibitory effect on human cancer cell lines: ACHN. Format: cell-based. Particulars: 72 h, Kidney Cancer, EMEM + 10% FBS, 2000 cell/well. Here is the method:
as §1, §2, §3

The next data set concerns mouse leukemia models. Particulars: combination with etoposide or cisplatin; Non-Patent Document 12; cited from earlier work.
Data set [2] has as its system non-small cell lung cancer cell line. Particulars: combination with cytarabine or gemcitabine; Non-Patent Document 11; cited from earlier work.
For data set [3] the following is noted: Non-Patent Document 10; cited from earlier work.
The target of another data set is T2, RNR (Homo sapiens, UniProt P31350).
T2 sequence (P31350 1-389): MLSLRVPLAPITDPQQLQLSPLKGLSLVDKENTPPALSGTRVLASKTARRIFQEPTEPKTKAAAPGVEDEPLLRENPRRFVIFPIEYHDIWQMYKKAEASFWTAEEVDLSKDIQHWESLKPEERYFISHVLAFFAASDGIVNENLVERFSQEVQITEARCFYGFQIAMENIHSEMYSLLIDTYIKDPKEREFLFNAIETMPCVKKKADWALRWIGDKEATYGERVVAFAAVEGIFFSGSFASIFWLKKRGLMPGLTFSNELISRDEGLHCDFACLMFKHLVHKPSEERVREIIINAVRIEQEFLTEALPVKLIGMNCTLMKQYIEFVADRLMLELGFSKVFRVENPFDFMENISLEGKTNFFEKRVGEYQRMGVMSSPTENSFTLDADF
Particulars: Non-Patent Document 7; cited from earlier work.

A word on the pIC50: it is −log10 of the IC50, conventionally taken in molar units.

pIC50: −log10 of the molar value.

For `[2H]C([2H])([2H])C1(O)CCOc2c(S(=O)(=O)N[C@H](c3n[nH]c(=O)o3)[C@H](C)c3c(F)ccc(C)c3C)ccc(Cl)c21` (single isomer, unassigned) [Example 200A], the pIC50 in data set [1] was 7.52; in the data set on NCI-H460 cells it was 6.89; in the data set with A2780 cells it was 6.89; in the data set on ACHN cells it was 6.89. Also, the “antitumor effect (relative tumor volume, RTV)” value with MV-4-11 is on record as “antitumor effect”.
With `NC(=S)NN=Cc1ncccc1N` [Example 3-AP, 3-aminopyridine-2-carboxaldehyde thiosemicarbazone], in the data set with mouse leukemia models, the “life extending effect in combination” value was “enhancement in life extending effect”. Further, the “cell proliferation inhibitory effect in combination” value in data set [2] is reported as “enhancement in cell proliferation inhibitory effect”. Also, the “side effects in clinical cases” value in [3] is reported as “hypoxia, dyspnea, methemoglobinemia”.
Turning to `NC(=O)NO` [HU, hydroxyurea], at RNR, the RNR inhibitory activity result is “very weak”.

The values above are taken from patent US20200405697A1, “Antitumor Agent” (Taiho Pharmaceutical Co., Ltd, priority 2017, published 2020).
